Patent US10822348B2, “Inhibitors of Bruton's tyrosine kinase and methods of their use” (JANSSEN PHARMACEUTICA NV, priority 2015, dated 2020)

Biological target: unphosphorylated-BTK kinase domain (UP-BTK), GST-tagged human BTK (389-659aa) (Homo sapiens (Human), UniProt Q06187)
Test: BTK kinase Lanthascreen binding assay
Conditions: for IC50: read-out: BTK_I_binding pIC50 (converted)
Protocol: BTK Kinase Lanthascreen Binding Assay:
A BTK kinase lanthascreen binding assay monitors compound binding to unphosphorylated-BTK kinase domain (UP-BTK), by competing with a fluorescent labeled tracer. […] Data were analyzed using Xlfit™ version 5.3 from ID Business Solutions (Guildford), Microsoft Excel add-in. pIC50 refers to the negative log of the IC50 in molar.

[1] = negative log of the IC50 in molar, 60 minutes incubation with 50 nM Tracer 236
[2] = negative log of the IC50 in molar, 60 minutes incubation, 50 nM Tracer 236
[3] = unphosphorylated-BTK kinase domain, 60 minutes incubation, pIC50 = negative log of the IC50 in molar

Chain of unphosphorylated-BTK kinase domain (UP-BTK), GST-tagged human BTK (389-659aa) (Q06187 389-659): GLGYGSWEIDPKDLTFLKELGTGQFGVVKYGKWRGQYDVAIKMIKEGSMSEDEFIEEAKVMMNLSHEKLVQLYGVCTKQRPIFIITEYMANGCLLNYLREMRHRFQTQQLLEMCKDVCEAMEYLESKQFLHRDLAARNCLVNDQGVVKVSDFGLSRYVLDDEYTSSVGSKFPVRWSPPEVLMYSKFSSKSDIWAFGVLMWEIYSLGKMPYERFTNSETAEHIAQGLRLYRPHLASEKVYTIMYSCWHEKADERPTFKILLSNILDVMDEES

C=CC(=O)N1CCC[C@@H](NC(=O)c2sc3nccc4c3c2NC(=O)N4c2cnc(CC(C)C)cc2C)C1 (single isomer, unassigned) [Example 722, (R)—N-(1-Acryloylpiperidin-3-yl)-5-(*R)-(6-isobutyl-4-methylpyridin-3-yl)-4-oxo-4,5-dihydro-3H-1-thia-3,5,8-triazaacenaphthylene-2-carboxamide]
BTK_I_binding pIC50 [1]: 6.4

Cc1cc(Oc2ccccc2)ccc1N1C(=O)Nc2c(C(=O)N[C@@H]3CCCN(C)C3)sc3nccc1c23 (single isomer, unassigned) [Example 180, (R)-5-(*R)-(2-Methyl-4-phenoxyphenyl)-N-(1-methylpiperidin-3-yl)-4-oxo-4,5-dihydro-3H-1-thia-3,5,8-triazaacenaphthylene-2-carboxamide]
BTK_I_binding pIC50 [2]: 6.0

Cc1cc(Oc2ccccc2)ccc1N1C(=O)Nc2c(C(=O)N[C@@H]3CCN(C)C3)sc3nccc1c23 (single isomer, unassigned) [Example 147, (R)-5-(*S)-(2-Methyl-4-phenoxyphenyl)-N-(1-methylpyrrolidin-3-yl)-4-oxo-4,5-dihydro-3H-1-thia-3,5,8-triazaacenaphthylene-2-carboxamide]
BTK_I_binding pIC50 [2]: 7.4

C=CC(=O)N1CCC[C@H](NC(=O)c2sc3nccc4c3c2NC(=O)N4c2ccc(Oc3ccccc3)cc2C)C1 (single isomer, unassigned) [Example 82, (S)—N-(1-acryloylpiperidin-3-yl)-5-(*S)-(2-methyl-4-phenoxyphenyl)-4-oxo-4,5-dihydro-3H-1-thia-3,5,8-triazaacenaphthylene-2-carboxamide]
BTK_I_binding pIC50 [2]: 7.2

Cc1cc(Oc2ccccc2)ccc1N1C(=O)Nc2c(C(=O)N[C@@H]3CCCN(C(=O)/C(C#N)=C/C4CC4)C3)sc3nccc1c23 (single isomer, unassigned) [Example 514, (R,E)-N-(1-(2-Cyano-3-cyclopropylacryloyl)piperidin-3-yl)-5-(*S)-(2-methyl-4-phenoxyphenyl)-4-oxo-4,5-dihydro-3H-1-thia-3,5,8-triazaacenaphthylene-2-carboxamide]
BTK_I_binding pIC50 [3]: 7.7

Cc1cc(Oc2ccccc2)ccc1N1C(=O)Nc2c(C(=O)N[C@@H]3CCCN(C(=O)/C=C/CNS(C)(=O)=O)C3)sc3nccc1c23 (single isomer, unassigned) [Example 532, (R,E)-5-(*S)-(2-Methyl-4-phenoxyphenyl)-N-(1-(4-(methylsulfonamido)but-2-enoyl)piperidin-3-yl)-4-oxo-4,5-dihydro-3H-1-thia-3,5,8-triazaacenaphthylene-2-carboxamide]
BTK_I_binding pIC50 [3]: 7.4

Cc1cc(Oc2ccccc2)ccc1N1C(=O)Nc2c(C(=O)N[C@H]3CCCOC3)sc3nccc1c23 (single isomer, unassigned) [Example 267, (S)-5-(*R)-(2-Methyl-4-phenoxyphenyl)-4-oxo-N-(tetrahydro-2H-pyran-3-yl)-4,5-dihydro-3H-1-thia-3,5,8-triazaacenaphthylene-2-carboxamide]
BTK_I_binding pIC50 [2]: 6.3

C=CC(=O)N1C[C@@H](F)C[C@@H](NC(=O)c2sc3nccc4c3c2NC(=O)N4c2ccc(Oc3ccccc3)cc2C)C1 [Example 3, N-((3R,5S)-1-Acryloyl-5-fluoropiperidin-3-yl)-5-(2-methyl-4-phenoxyphenyl)-4-oxo-4,5-dihydro-3H-1-thia-3,5,8-triazaacenaphthylene-2-carboxamide]
IC50: 12.6 nM

C=CC(=O)N1C[C@H](NC(=O)c2sc3nccc4c3c2NC(=O)N4c2ccc(Oc3ccccc3)cc2C)[C@@H](F)C1 (relative stereo) [Example 486, N-((3S,4S)-1-Acryloyl-4-fluoropyrrolidin-3-yl)-5-(*S)-(2-methyl-4-phenoxyphenyl)-4-oxo-4,5-dihydro-3H-1-thia-3,5,8-triazaacenaphthylene-2-carboxamide]
BTK_I_binding pIC50 [3]: 7.8

CNC/C=C/C(=O)N1CCC[C@@H](NC(=O)c2sc3nccc4c3c2NC(=O)N4c2ccc(Oc3ccccc3)cc2C)C1 (single isomer, unassigned) [Example 292, (R,E)-5-(*R)-(2-Methyl-4-phenoxyphenyl)-N-(1-(4-(methylamino)but-2-enoyl)piperidin-3-yl)-4-oxo-4,5-dihydro-3H-1-thia-3,5,8-triazaacenaphthylene-2-carboxamide]
BTK_I_binding pIC50 [3]: 6.1

C=CC(=O)N1C[C@@H](F)C[C@@H](NC(=O)c2sc3nccc4c3c2NC(=O)N4c2ccc(Oc3ccccc3)cc2C)C1 (relative stereo) [Example 484, N-((3R,5S)-1-Acryloyl-5-fluoropiperidin-3-yl)-5-(*S)-(2-methyl-4-phenoxyphenyl)-4-oxo-4,5-dihydro-3H-1-thia-3,5,8-triazaacenaphthylene-2-carboxamide]
BTK_I_binding pIC50 [3]: 8.0

O=C(CCCC(=O)NCCCOCCOCCOCCCNC(=O)CCCC[C@H]1SC[C@H]2NC(=O)N[C@H]21)NC/C=C/C(=O)N1CCCC(NC(=O)c2sc3nccc4c3c2NC(=O)N4c2ccc(Oc3ccccc3)cn2)C1 (stereo partly drawn) [Example 780, N^1-(15-oxo-19-((3aR,4R,6aS)-2-oxohexahydro-1H-thieno[3,4-d]imidazol-4-yl)-4,7,10-trioxa-14-azanonadecyl)-N^5-((E)-4-oxo-4-(3-(4-oxo-5-(5-phenoxypyridin-2-yl)-4,5-dihydro-3H-1-thia-3,5,8-triazaacenaphthylene-2-carboxamido)piperidin-1-yl)but-2-en-1-yl)glutaramide]
BTK_I_binding pIC50 [1]: 6.3

Cc1cc(Oc2ccccc2)ccc1N1C(=O)Nc2c(C(=O)N[C@@H]3CCCN(C(=O)/C=C/CN)C3)sc3nccc1c23 (single isomer, unassigned) [Example 367, (R,E)-N-(1-(4-Aminobut-2-enoyl)piperidin-3-yl)-5-(*R)-(2-methyl-4-phenoxyphenyl)-4-oxo-4,5-dihydro-3H-1-thia-3,5,8-triazaacenaphthylene-2-carboxamide]
BTK_I_binding pIC50 [3]: 6.2

C=CC(=O)N1CCC[C@@H](NC(=O)c2sc3nccc4c3c2NC(=O)N4c2ccc(OC(F)(F)F)cc2C)C1 (single isomer, unassigned) [Example 505, (R)—N-(1-Acryloylpiperidin-3-yl)-5-(*S)-(2-methyl-4-(trifluoromethoxy)phenyl)-4-oxo-4,5-dihydro-3H-1-thia-3,5,8-triazaacenaphthylene-2-carboxamide]
BTK_I_binding pIC50 [3]: 7.8

C=CC(=O)N1CC[C@@H](NC(=O)c2sc3nccc4c3c2NC(=O)N4c2cnc(OCC(C)C)cc2C)C1 (single isomer, unassigned) [Example 779, (R)—N-(1-Acryloylpyrrolidin-3-yl)-5-(*S)-(6-isobutoxy-4-methylpyridin-3-yl)-4-oxo-4,5-dihydro-3H-1-thia-3,5,8-triazaacenaphthylene-2-carboxamide]
BTK_I_binding pIC50 [1]: 8.0

C=CC(=O)N1C[C@@H](O)C[C@@H](NC(=O)c2sc3nccc4c3c2NC(=O)N4c2ccc(Oc3ccccc3)cc2C)C1 (single isomer, unassigned) [Example 2, N-((3R,5S)-1-Acryloyl-5-hydroxypiperidin-3-yl)-5-(*S)-(2-methyl-4-phenoxyphenyl)-4-oxo-4,5-dihydro-3H-1-thia-3,5,8-triazaacenaphthylene-2-carboxamide]
IC50: 6.31 nM
